Experiments:
[1] = target: T1, Peroxisome proliferator-activated receptor gamma (Homo sapiens, UniProt P37231); assay type: cell-based, 293T; settings: read-out: EC50
T1 sequence (P37231 whole entry): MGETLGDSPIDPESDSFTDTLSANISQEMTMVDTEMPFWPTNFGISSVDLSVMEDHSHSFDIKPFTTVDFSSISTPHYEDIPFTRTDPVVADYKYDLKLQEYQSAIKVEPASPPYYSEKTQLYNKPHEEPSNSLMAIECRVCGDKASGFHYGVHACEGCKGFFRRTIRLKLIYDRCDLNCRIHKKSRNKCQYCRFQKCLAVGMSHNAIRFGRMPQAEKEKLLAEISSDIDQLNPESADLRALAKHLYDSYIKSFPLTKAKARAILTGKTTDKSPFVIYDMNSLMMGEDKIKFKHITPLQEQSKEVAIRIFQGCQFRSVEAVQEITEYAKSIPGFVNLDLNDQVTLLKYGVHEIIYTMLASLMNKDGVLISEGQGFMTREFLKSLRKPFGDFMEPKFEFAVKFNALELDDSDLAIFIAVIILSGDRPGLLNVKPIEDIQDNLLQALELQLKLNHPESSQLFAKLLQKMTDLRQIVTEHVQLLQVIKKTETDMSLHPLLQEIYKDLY

[2] = target: T2, Peroxisome proliferator-activated receptor alpha (Homo sapiens, UniProt Q07869); assay: Agonist activity at human PPARalpha ligand binding domain expressed in human 293T cells co-transfected with Gal4-DBD by luciferase transactivation assay; assay type: cell-based; settings: read-out: EC50
T2 sequence (Q07869 whole entry): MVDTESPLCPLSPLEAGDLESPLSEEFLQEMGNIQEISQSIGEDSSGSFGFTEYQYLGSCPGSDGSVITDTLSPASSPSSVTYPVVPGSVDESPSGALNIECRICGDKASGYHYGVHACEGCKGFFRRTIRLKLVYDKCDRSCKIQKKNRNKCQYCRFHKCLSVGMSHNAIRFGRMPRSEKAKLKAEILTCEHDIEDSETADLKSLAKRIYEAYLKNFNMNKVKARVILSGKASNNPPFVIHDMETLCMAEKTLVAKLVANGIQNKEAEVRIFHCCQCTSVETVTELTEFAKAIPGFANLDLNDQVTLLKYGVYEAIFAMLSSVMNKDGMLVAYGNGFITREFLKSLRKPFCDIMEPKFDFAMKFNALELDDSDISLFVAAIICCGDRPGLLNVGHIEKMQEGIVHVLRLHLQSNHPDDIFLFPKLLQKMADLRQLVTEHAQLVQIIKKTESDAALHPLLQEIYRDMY

[3] = target: T3, Peroxisome proliferator-activated receptor delta (Homo sapiens, UniProt Q03181)
T3 sequence (Q03181 whole entry): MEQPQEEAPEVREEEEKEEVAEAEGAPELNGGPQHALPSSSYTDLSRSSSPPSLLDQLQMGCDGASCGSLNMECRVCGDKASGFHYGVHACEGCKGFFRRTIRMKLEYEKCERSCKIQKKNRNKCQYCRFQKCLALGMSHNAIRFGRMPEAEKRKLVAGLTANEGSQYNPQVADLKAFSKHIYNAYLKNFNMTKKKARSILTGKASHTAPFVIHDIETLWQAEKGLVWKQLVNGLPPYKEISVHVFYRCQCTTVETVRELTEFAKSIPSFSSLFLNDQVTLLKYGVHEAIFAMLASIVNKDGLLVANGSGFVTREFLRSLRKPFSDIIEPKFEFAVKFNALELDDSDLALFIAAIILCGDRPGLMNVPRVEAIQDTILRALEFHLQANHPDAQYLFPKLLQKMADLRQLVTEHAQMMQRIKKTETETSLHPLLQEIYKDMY

EC50 [1] [µM] | EC50 [2] [µM] | EC50 [3] [µM] | Structure (SMILES)
> 10 | > 10 | > 10 | COc1ccc(-c2nc(COc3ccc(OCC(=O)O)c(C)c3)sc2-c2ccccc2C(F)(F)F)cc1
> 10 | > 10 | 2.4 | Cc1cc(OCc2nc(-c3ccc(C(F)(F)F)cc3)c(C)s2)ccc1OCC(=O)O
> 10 | > 10 | 0.026 | CCCCOc1ccc(-c2nc(COc3ccc(OCC(=O)O)c(C)c3)sc2-c2ccc(OC(F)(F)F)cc2)cc1
> 10 | > 10 | 0.51 | CCCc1ccc(-c2sc(COc3ccc(OCC(=O)O)c(C)c3)nc2-c2ccc(OC)cc2)cc1
> 10 | > 10 | 0.23 | COc1ccc(-c2nc(CSc3ccc(OCC(=O)O)c(C)c3)sc2-c2ccc(C(F)(F)F)cc2)cc1
> 10 | > 10 | 0.035 | CCCOc1ccc(-c2nc(COc3ccc(OCC(=O)O)c(C)c3)sc2-c2ccc(OC(F)(F)F)cc2)cc1
> 10 | > 10 | 0.063 | Cc1cc(OCc2nc(-c3ccc(OCC(C)C)cc3)c(-c3ccc(OC(F)(F)F)cc3)s2)ccc1OCC(=O)O
> 10 | > 10 | 0.055 | Cc1cc(OCc2nc(-c3cncnc3)c(-c3ccc(OC(F)(F)F)cc3)o2)ccc1OCC(=O)O
> 10 | > 10 | 0.01 | COc1ccc(-c2nc(COc3ccc(OCC(=O)O)c(C)c3)sc2-c2ccc(-c3ccccc3)cc2)cc1
> 10 | > 10 | 0.47 | COc1ccc(-c2nc(CSc3ccc(OCC(=O)O)c(C)c3)sc2-c2ccc(OC)cc2)cc1
> 10 | > 10 | 5.67 | COc1ccc(-c2nc(SCc3ccc(OCC(=O)O)c(C)c3)sc2-c2ccc(OC)cc2)cc1
> 10 | > 10 | 0.059 | Cc1cc(OCc2nc(-c3cncnc3)c(-c3ccc(OC(F)(F)F)cc3)s2)ccc1OCC(=O)O
> 10 | > 10 | > 10 | COc1ccc(-c2nc(COc3cccc(OCC(=O)O)c3)sc2-c2ccc(C(F)(F)F)cc2)cc1
> 10 | > 10 | 1.3 | COc1ccc(-c2nc(COc3ccc(CC(=O)O)cc3)sc2-c2ccc(C(F)(F)F)cc2)cc1
> 10 | > 10 | 4.71 | Cc1cc(OCc2nc(-c3ccc(Cl)cc3)cs2)ccc1OCC(=O)O
> 10 | > 10 | 2.26 | COc1ccc(-c2nc(COc3ccc(OCC(=O)O)cc3C)sc2-c2ccc(C(F)(F)F)cc2)cc1
> 10 | > 10 | 0.14 | COc1ccc(-c2nc(COc3ccc(CC(=O)O)c(C)c3)sc2-c2ccc(C(F)(F)F)cc2)cc1
> 10 | > 10 | 0.93 | COc1ccc(-c2nc(COc3ccc(OCC(=O)O)cc3)sc2-c2ccc(C(F)(F)F)cc2)cc1
> 10 | > 10 | 0.03 | CCN(CC)c1ccc(-c2nc(COc3ccc(OCC(=O)O)c(C)c3)sc2-c2ccc(OC(F)(F)F)cc2)cc1
> 10 | > 10 | 0.775 | Cc1cc(OCc2nc(-c3ccc(NS(C)(=O)=O)cc3)c(-c3ccc(OC(F)(F)F)cc3)s2)ccc1OCC(=O)O
2.3 | 0.3 | 3.2 | COc1ccc(-c2nc(Sc3cccc(C(C)C(=O)O)c3)sc2-c2ccc(OC)cc2)cc1 (configuration not stated)

Structure (SMILES) | EC50 [1] [µM] | EC50 [2] [µM] | EC50 [3] [µM]
COc1ccc(-c2nc(COc3ccc(OCC(=O)O)c(C)c3)sc2-c2ccc3ccccc3c2)cc1 | > 10 | > 10 | 0.02
COc1ccc(-c2nc(COc3ccc(OCC(=O)O)c(C)c3)oc2-c2ccc(-c3ccccc3)cc2)cc1 | > 10 | > 10 | 0.01
Cc1cc(OC/C=C(\C#Cc2ccc(C(F)(F)F)cc2)c2ccc(Br)cc2)ccc1OCC(=O)O | > 10 | > 10 | 0.13

Source: ChEMBL document CHEMBL1153748 (J Med Chem, 2010)
